Experimental data as given in PubChem BioAssay (NCI).
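These data come from cells grown in 96-well plates and exposed to compound for 48 hours at five concentrations. TGI is the concentration that stops growth completely.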

Legend:
Experiment in all cases: inhibition of tumour cell growth, NCI panel, 48 h
KM12 colon = test system: KM12 colon
SK-OV-3 ovarian = test system: SK-OV-3 ovarian
SR leukemia = test system: SR leukemia
HL-60(TB) leukemia = test system: HL-60(TB) leukemia
SF-295 CNS = test system: SF-295 CNS
SK-MEL-5 melanoma = test system: SK-MEL-5 melanoma
NCI-H23 lung = test system: NCI-H23 lung
EKVX NSCLC = test system: EKVX NSCLC
OVCAR-8 ovarian = test system: OVCAR-8 ovarian
M14 melanoma = test system: M14 melanoma
HCC-2998 colon = test system: HCC-2998 colon
RPMI-8226 leukemia = test system: RPMI-8226 leukemia
SN12C renal = test system: SN12C renal
MALME-3M melanoma = test system: MALME-3M melanoma
UACC-62 melanoma = test system: UACC-62 melanoma
A549 NSCLC = test system: A549 NSCLC
SF-268 CNS = test system: SF-268 CNS
OVCAR-3 ovarian = test system: OVCAR-3 ovarian
MCF7 breast = test system: MCF7 breast
MDA-MB-231 breast = test system: MDA-MB-231 breast
UO-31 renal = test system: UO-31 renal
CCRF-CEM leukemia = test system: CCRF-CEM leukemia
HCT-15 colon = test system: HCT-15 colon
SK-MEL-2 melanoma = test system: SK-MEL-2 melanoma
786-0 renal = test system: 786-0 renal
LOX IMVI melanoma = test system: LOX IMVI melanoma
ACHN renal = test system: ACHN renal
UACC-257 melanoma = test system: UACC-257 melanoma
MDA-N = test system: MDA-N
HS 578T breast = test system: HS 578T breast
U251 CNS = test system: U251 CNS
NCI/ADR-RES ovarian = test system: NCI/ADR-RES ovarian
K-562 leukemia = test system: K-562 leukemia
SNB-75 CNS = test system: SNB-75 CNS
HOP-92 NSCLC = test system: HOP-92 NSCLC
PC-3 prostate = test system: PC-3 prostate
SK-MEL-28 melanoma = test system: SK-MEL-28 melanoma
OVCAR-5 ovarian = test system: OVCAR-5 ovarian
COLO 205 colon = test system: COLO 205 colon
MDA-MB-435 = test system: MDA-MB-435
MOLT-4 leukemia = test system: MOLT-4 leukemia
HCT-116 colon = test system: HCT-116 colon
OVCAR-4 ovarian = test system: OVCAR-4 ovarian
NCI-H226 lung = test system: NCI-H226 lung
HOP-62 NSCLC = test system: HOP-62 NSCLC
TK-10 renal = test system: TK-10 renal
T-47D breast = test system: T-47D breast
IGROV1 ovarian = test system: IGROV1 ovarian
SW-620 colon = test system: SW-620 colon
NCI-H460 lung = test system: NCI-H460 lung
DU-145 prostate = test system: DU-145 prostate
HT29 colon = test system: HT29 colon
SF-539 CNS = test system: SF-539 CNS

Work on `O=C1NC(Nc2ccccc2)=NC(C(F)(F)F)(C(F)(F)F)N1` yielded a TGI (KM12 colon) greater than 100 µM, a TGI (SK-OV-3 ovarian) greater than 100 µM and a TGI (SR leukemia) greater than 100 µM. The TGI (HL-60(TB) leukemia) was greater than 100 µM, the TGI (SF-295 CNS) was greater than 100 µM and the TGI (SK-MEL-5 melanoma) was 79.6 µM. For the same molecule, the TGI (NCI-H23 lung) was greater than 100 µM, the TGI (EKVX NSCLC) was greater than 100 µM and the TGI (OVCAR-8 ovarian) was greater than 100 µM. It also gave a TGI (M14 melanoma) of 83.5 µM, a TGI (HCC-2998 colon) greater than 100 µM and a TGI (RPMI-8226 leukemia) greater than 100 µM. It also gave a TGI (SN12C renal) greater than 100 µM, a TGI (MALME-3M melanoma) greater than 100 µM and a TGI (UACC-62 melanoma) greater than 100 µM. For the same molecule, the TGI (A549 NSCLC) was greater than 100 µM, the TGI (SF-268 CNS) was greater than 100 µM and the TGI (OVCAR-3 ovarian) was greater than 100 µM. The TGI (MCF7 breast) was greater than 100 µM, the TGI (MDA-MB-231 breast) was greater than 100 µM and the TGI (UO-31 renal) was greater than 100 µM. The TGI (CCRF-CEM leukemia) was greater than 100 µM, the TGI (HCT-15 colon) was greater than 100 µM and the TGI (SK-MEL-2 melanoma) was 75.4 µM. For the same molecule, the TGI (786-0 renal) was greater than 100 µM, the TGI (LOX IMVI melanoma) was greater than 100 µM and the TGI (ACHN renal) was greater than 100 µM. For the same molecule, the TGI (UACC-257 melanoma) was greater than 100 µM, the TGI (MDA-N) was greater than 100 µM and the TGI (HS 578T breast) was greater than 100 µM. For the same molecule, the TGI (U251 CNS) was 87.9 µM, the TGI (NCI/ADR-RES ovarian) was greater than 100 µM and the TGI (K-562 leukemia) was greater than 100 µM. The TGI (SNB-75 CNS) was 87.6 µM, the TGI (HOP-92 NSCLC) was 53.4 µM and the TGI (PC-3 prostate) was greater than 100 µM. For the same molecule, the TGI (SK-MEL-28 melanoma) was greater than 100 µM, the TGI (OVCAR-5 ovarian) was greater than 100 µM and the TGI (COLO 205 colon) was greater than 100 µM. It also gave a TGI (MDA-MB-435) greater than 100 µM, a TGI (MOLT-4 leukemia) greater than 100 µM and a TGI (HCT-116 colon) greater than 100 µM. For the same molecule, the TGI (OVCAR-4 ovarian) was greater than 100 µM, the TGI (NCI-H226 lung) was greater than 100 µM and the TGI (HOP-62 NSCLC) was greater than 100 µM. For the same molecule, the TGI (TK-10 renal) was greater than 100 µM, the TGI (T-47D breast) was greater than 100 µM and the TGI (IGROV1 ovarian) was greater than 100 µM. The TGI (SW-620 colon) was greater than 100 µM, the TGI (NCI-H460 lung) was greater than 100 µM and the TGI (DU-145 prostate) was greater than 100 µM. The TGI (HT29 colon) was greater than 100 µM and the TGI (SF-539 CNS) was greater than 100 µM.
